Assay [1] deals with ERK5 autophosphorylation in HeLa cells. The experiment in a line: EGF-stimulated HeLa cell assay (ERK5 autophosphorylation, Western blot). The class given is cell-based. To be noted: Homo sapiens, average where more than one data point. As for the experimental part: EGF-Stimulated HeLa Cell Assay
HeLa cells were serum starved overnight followed by treatment with ERK5 inhibitors for 1 hr. Cells were then stimulated with 100 ng/ml EGF for 10 or 15 min. The cells were harvested and lysed at 4° C. for 5-10 min in Laemmli buffer containing Halt protease and […] (Pierce). The lysates were boiled for 10 min at 100° C. Twenty microliters sample was run on 6% or 7.5% Tris-glycine gels and transferred to nitrocellulose. […] The IC50 was calculated from densitometry of top bands.

Another assay addresses T1, ERK5 (Homo sapiens, UniProt Q13164).
T1 construct: made in house
The experiment in a line: ERK5 IMAP assay (fluorescence polarisation). It counts as biochemical. To be noted: average (e.g. geometric mean) where more than one data point; read-out: ERK5 IC50. Background: In fluorescence polarisation assays a small probe gives low polarisation when free and higher when bound to something large.

Assay [2] has as its system HA-ERK5-ΔP493 (MEK5D-activated, MEF2D-Gal4/Gal4-Luc reporter) in HEK293T cells. The experiment in a line: Truncated dual-luciferase reporter assay, HEK293T forward transfection. It counts as cell-based. To be noted: Homo sapiens, HEK-293T, average where more than one data point, read-out: Truncated ERK 5 Reporter Assay. The procedure: Truncated Dual-Luciferase Reporter Assay
HEK293T and HeLa Forward Transfection
Constitutively-active, EGFP-tagged MEK5 (EGFP-MEK5D; 0.5 μg/μl), an EGFP-tagged construct containing no MEK5D (EGFP-C3; 0.5 μg/μl), and HA-tagged ERK5 with C-terminal truncation (HA-ERK5-ΔP493; 0.51 μg/μl) were diluted separately in sterile distilled water. Plasmid DNA and Lipofectamine 2000 (Invitrogen) were separately diluted in Opti-MEM growth media (reduced serum medium, Invitrogen), and incubated at room temperature for 5 min. Plasmid DNA (Tube A) and Lipofectamine 2000 (Tube B) were then combined and incubated for 20 min at room temperature to complex. Cells were then transfected by addition of 16 μl of the respective transfection mixture: 3 wells with EGFP-C3-containing (control) and 21 wells with MEK5D-containing transfection mixture (final volume, 100 μl). Cells were subsequently incubated for 4 h at 37° prior to addition of potential ERK5-inhibitory compounds.
Addition of Compounds to ERK5-Transfected HEK293T or HeLa Cells
Potential ERK5-inhibitory compounds were prepared as a 2× solution by addition of 2 μl compound (or DMSO as control) to 1 ml standard culture medium. Compounds were tested in triplicate at a concentration range of 0.003 μM, 0.01 μM, 0.03 μM, 0.1 μM, 0.3 μM and 1 μM (or 0.03 μM, 0.1 μM, 0.3 μM, 1 μM, 3 μM and 10 μM for BIX02189) by addition of 100 μl 2× solution to 100 μl transfected cells (final DMSO, 0.1% v/v). Cells were incubated for 24 h at 37° C.
Cell Lysis and Luciferase Quantification
After 24 h incubation in the absence (control) or presence of potential inhibitor, the culture medium was aspirated and cells lysed in 20 μl 1× passive lysis buffer (Dual-Luciferase Reporter Assay System, Promega) for a minimum of 15 min with agitation. Lysates were further processed immediately or stored at −80° C. Cellular inhibition of ERK5 was quantified using the Dual-Luciferase Reporter Assay System (Promega). Luciferase assay buffer/Luciferase assay substrate and Stop and Glo assay buffer/Stop and Glo substrate were prepared according to the manufacturer's instructions. Luciferase reagent (50 μl/well) was added immediately before luminescence detection using a FLUOstar Omega plate reader (BMG Labtech). Stop and Glo reagent (50 μl/well) was subsequently added, and the Renilla luciferase signal (transfection efficiency control) quantified.
The ERK5-specific signalling activity was calculated by subtraction of the EGFP-C3 luciferase signal from the EGFP-MEK5D-induced luminescence. Luminescence in the absence of potential ERK5 inhibitor (DMSO control) was taken as 100% ERK5 activity. […] Unless stated otherwise, data are mean±standard deviation of three independent experiments.
In general terms: In a reporter assay the amount or activity of a reporter protein is the signal.

Assay [3] has as its system ERK5 (HA-ERK5 wt activated by EGFP-MEK5D, MEF2D-Gal4/Gal4-Luc reporter) in HEK293 cells. The experiment in a line: Dual-luciferase reporter assay (ERK5 reporter), reverse-transfected HEK293 cells. The settings on record: Homo sapiens, HEK293, read-out: ERK 5 Reporter Assay.
Protocol: Trypsinizing of Adherent Cell Colonies
Cells were regularly passaged in order to maintain optimum colony sizes on plates. In order to do this, and to harvest cells for use in the dual-luciferase reporter assay, adherent cells were lifted from tissue culture dishes. Cell media was removed via aspiration, and the cell monolayer was washed with phosphate buffered saline (PBS) solution (10 mL), which was then aspirated.
Reverse Transfection of HEK293 Cells
Preparation of EGFP Control (C3) Working Solution (for 1×96 Well Plate)
Preparation of HEK293 Cells for Reverse Transfection
Trypsinized HEK293 cells were re-suspended in 19 mL of fresh cell media and counted using haemocytometry. Cells were then diluted with fresh cell media to achieve a final cell concentration of 2×10^5 cells/mL. 1237.5 μL and 7425 μL of this cell media was added to the C3 and 5D working solutions respectively. 100 μL of the transfected cells were then aliquoted into the appropriate wells in a 96-well opaque sided tissue culture plate, and incubated at 37° C. for 6 h.
Addition of Compounds to HEK293 Cells
4 compounds was assayed per 96-well plate. For each compound, 1 mL of growth media was added to eight 1.5 mL Eppendorf® tubes. 6 μL of DMSO was added to two tubes for C3 and blank 5D wells, and 6 μL of the relevant compound stock solution was added to the 6 remaining tubes. […] Solutions of drug in media were thoroughly mixed, and 100 μL of the relevant compound was transferred (in triplicate) to the 96-well plate containing transfected HEK293 cells using an electronic multichannel pipette with variable tip spacing. Sealed plates were incubated at 37° C. for 24 h. Final compound concentrations were as follows; 30 μM, 10 μM, 3 μM, 1 μM and 0.3 μM.
15 mL of 1× passive lysis buffer (PLB) was prepared using 5×PLB (Dual-Luciferase Reporter Assay System, Promega® E1960), diluting with H2O. Assay plates prepared were removed from the incubator and the growth media removed by aspiration.

T1 sequence (Q13164 whole entry): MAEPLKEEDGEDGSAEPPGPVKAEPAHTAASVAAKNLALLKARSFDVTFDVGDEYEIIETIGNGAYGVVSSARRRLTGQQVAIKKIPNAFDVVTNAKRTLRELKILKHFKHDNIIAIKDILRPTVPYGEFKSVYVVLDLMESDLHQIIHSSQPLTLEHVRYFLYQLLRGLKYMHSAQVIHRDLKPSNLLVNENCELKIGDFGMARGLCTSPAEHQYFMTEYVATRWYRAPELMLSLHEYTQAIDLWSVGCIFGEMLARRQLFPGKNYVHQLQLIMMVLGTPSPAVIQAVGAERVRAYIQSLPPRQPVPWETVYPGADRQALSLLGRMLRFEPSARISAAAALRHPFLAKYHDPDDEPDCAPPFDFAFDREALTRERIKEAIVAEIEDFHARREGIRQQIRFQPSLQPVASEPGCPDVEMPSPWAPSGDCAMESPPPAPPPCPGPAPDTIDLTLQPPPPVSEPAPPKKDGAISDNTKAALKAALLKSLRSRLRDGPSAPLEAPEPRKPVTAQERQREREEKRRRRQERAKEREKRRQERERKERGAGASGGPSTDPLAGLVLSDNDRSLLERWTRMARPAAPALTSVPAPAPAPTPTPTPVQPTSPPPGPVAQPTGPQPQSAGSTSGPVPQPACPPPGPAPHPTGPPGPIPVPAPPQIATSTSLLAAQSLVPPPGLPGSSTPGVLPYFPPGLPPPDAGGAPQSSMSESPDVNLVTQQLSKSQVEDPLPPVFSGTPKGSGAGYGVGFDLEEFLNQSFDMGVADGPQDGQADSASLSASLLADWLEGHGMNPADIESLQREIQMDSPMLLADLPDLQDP

Take `O=C(Nc1ccc(OC2CCNCC2)nc1)c1cc(C(=O)c2c(Cl)ccc(Cl)c2F)c[nH]1` [Example 109, 4-(3,6-Dichloro-2-fluorobenzoyl)-N-(6-(piperidin-4-yloxy)pyridin-3-yl)-1H-pyrrole-2-carboxamide]: the IC50 in assay [1] was found to be 0.05 µM; on ERK5 it was 0.0108 µM; in assay [2], 0.092 µM.
As for `CN(c1ccc(NC(=O)c2cc(C(=O)c3c(Cl)ccc(Cl)c3F)c[nH]2)cn1)C1CCNCC1` [Example 107, 4-(3,6-Dichloro-2-fluorobenzoyl)-N-(6-(methyl(piperidin-4-yl)amino)pyridin-3-yl)-1H-pyrrole-2-carboxamide], the IC50 in assay [1] turned out to be 0.45 µM; at ERK5, 0.0246 µM.
The matching figures for `O=C(Nc1ccc(CC2CCNCC2)nc1)c1cc(C(=O)c2c(Cl)ccc(Cl)c2F)c[nH]1` [Example 111, 4-(3,6-Dichloro-2-fluorobenzoyl)-N-(6-(piperidin-4-ylmethyl)pyridin-3-yl)-1H-pyrrole-2-carboxamide]: 0.29 µM and 0.0051 µM.
`O=C(Nc1cccnc1)c1cc(C(=O)c2c(Cl)ccc(Cl)c2F)c[nH]1` [Example 172, 4-(3,6-Dichloro-2-fluorobenzoyl)-N-(pyridin-3-yl)-1H-pyrrole-2-carboxamide]: the figures for the IC50 (in assay [1]; at ERK5; in assay [3]) were 0.19 µM, 0.0656 µM and 0.599 µM, respectively.
As to `O=C(Nc1cnn(C2CNC2)c1)c1cc(C(=O)c2c(Cl)ccc(Cl)c2F)c[nH]1` [Example 54, N-(1-(Azetidin-3-yl)-1H-pyrazol-4-yl)-4-(3,6-dichloro-2-fluorobenzoyl)-1H-pyrrole-2-carboxamide], the figures for the IC50 (in assay [1]; on ERK5) were 0.14 µM and 0.0317 µM, respectively.
As for `COc1ccc(Cl)c(C(=O)c2c[nH]c(C(=O)Nc3cccnc3)c2)c1F` [Example 72, 4-(6-chloro-2-fluoro-3-methoxybenzoyl)-N-(pyridin-3-yl)-1H-pyrrole-2-carboxamide], the results for the IC50 (in assay [1]; at ERK5; in assay [3]) were 1.9 µM, 0.0908 µM and 2.98 µM, respectively.
`CCN(CC)CCNc1ccc(NC(=O)c2cc(C(=O)c3c(Cl)ccc(Cl)c3F)c[nH]2)cn1` [Example 262, 4-(3,6-Dichloro-2-fluorobenzoyl)-N-(6-((2-(diethylamino)ethyl)amino)pyridin-3-yl)-1H-pyrrole-2-carboxamide]: the figures for the IC50 (on ERK5; in assay [2]) were 0.0185 µM and 0.149 µM, respectively.
On the same counts, the results for `O=C(Nc1ccc(NCCN2CCCC2)nc1)c1cc(C(=O)c2c(Cl)ccc(Cl)c2F)c[nH]1` [Example 275, 4-(3,6-Dichloro-2-fluorobenzoyl)-N-(6-((2-(pyrrolidin-1-yl)ethyl)amino)pyridin-3-yl)-1H-pyrrole-2-carboxamide] are 0.0071 µM and 0.107 µM.
With `COc1ccc(Cl)c(C(=O)c2c[nH]c(C(=O)Nc3cnc(CN4CCNCC4)nc3)c2)c1F` [Example 250, 4-(6-Chloro-2-fluoro-3-methoxybenzoyl)-N-(2-(piperazin-1-ylmethyl)pyrimidin-5-yl)-1H-pyrrole-2-carboxamide], the IC50 at ERK5 amounted to 0.0158 µM; in assay [2] it was 0.573 µM.
On the same counts, the results for `O=C(Nc1ccc(NCCN2CCOCC2)nc1)c1cc(C(=O)c2c(Cl)ccc(Cl)c2F)c[nH]1` [Example 276, 4-(3,6-Dichloro-2-fluorobenzoyl)-N-(6-((2-morpholinoethyl)amino)pyridin-3-yl)-1H-pyrrole-2-carboxamide] are 0.0581 µM and 0.125 µM.
On the same counts, the results for `COCCN(C)Cc1ccc(NC(=O)c2cc(C(=O)c3c(Cl)ccc(Cl)c3F)c[nH]2)cn1` [Example 278] are 0.034 µM and 0.04 µM.
The matching figures for `COc1ccc(Cl)c(C(=O)c2c[nH]c(C(=O)Nc3cnc(CC4CCNCC4)nc3)c2)c1F` [Example 252, 4-(6-Chloro-2-fluoro-3-methoxybenzoyl)-N-(2-(piperidin-4-ylmethyl)pyrimidin-5-yl)-1H-pyrrole-2-carboxamide]: 0.0122 µM and 0.627 µM.
Regarding `O=C(Nc1cnc(NCCN2CCCCC2)nc1)c1cc(C(=O)c2c(Cl)ccc(Cl)c2F)c[nH]1` [Example 104, 4-(3,6-Dichloro-2-fluorobenzoyl)-N-(2-((2-(piperidin-1-yl)ethyl)amino)pyrimidin-5-yl)-1H-pyrrole-2-carboxamide], the IC50 on ERK5 was determined as 0.0104 µM; in assay [2] it was 0.09 µM.
As for `COc1ccc(Cl)c(C(=O)c2c[nH]c(C(=O)NC3CCN(C)CC3)c2)c1F` [Example 70, 4-(6-chloro-2-fluoro-3-methoxybenzoyl)-N-(1-methylpiperidin-4-yl)-1H-pyrrole-2-carboxamide], the IC50 was found to be 1.7 µM in assay [1], 0.0579 µM at ERK5 and 0.477 µM in assay [3].
As to `CN(C)CCNc1ncc(NC(=O)c2cc(C(=O)c3c(Cl)ccc(Cl)c3F)c[nH]2)cn1` [Example 99, 4-(3,6-Dichloro-2-fluorobenzoyl)-N-(2-((2-(dimethylamino)ethyl)amino)pyrimidin-5-yl)-1H-pyrrole-2-carboxamide], the IC50 is 0.0153 µM at ERK5 and 0.122 µM in assay [2].
On the same counts, the results for `COc1ccc(Cl)c(C(=O)c2c[nH]c(C(=O)Nc3ccc(CC4CCN(C)CC4)nc3)c2)c1F` [Example 236, 4-(6-Chloro-2-fluoro-3-methoxybenzoyl)-N-(6-((1-methylpiperidin-4-yl)methyl)pyridin-3-yl)-1H-pyrrole-2-carboxamide] are 0.0102 µM and 0.096 µM.
On the same counts, the results for `O=C(Nc1ccc(CN2CCC(O)CC2)nc1)c1cc(C(=O)c2c(Cl)ccc(Cl)c2F)c[nH]1` [Example 282] are 0.0067 µM and 0.044 µM.
The matching figures for `COc1ccc(Cl)c(C(=O)c2c[nH]c(C(=O)Nc3ccc(CN4CCN(C)CC4)nc3)c2)c1F` [Example 246, 4-(6-Chloro-2-fluoro-3-methoxybenzoyl)-N-(6-((4-methylpiperazin-1-yl)methyl)pyridin-3-yl)-1H-pyrrole-2-carboxamide]: 0.0085 µM and 0.069 µM.
On to `CN(C)Cc1ccc(NC(=O)c2cc(C(=O)c3c(Cl)ccc(Cl)c3F)c[nH]2)cn1` [Example 277, 4-(3,6-Dichloro-2-fluorobenzoyl)-N-(6-((dimethylamino)methyl)pyridin-3-yl)-1H-pyrrole-2-carboxamide], for which the figures for the IC50 (at ERK5; in assay [2]) were 0.022 µM and 0.036 µM, respectively.
For `O=C(Nc1cnc(NC2CCN(C3CC3)CC2)nc1)c1cc(C(=O)c2c(Cl)ccc(Cl)c2F)c[nH]1` [Example 25, N-(2-((1-Cyclopropylpiperidin-4-yl)amino)pyrimidin-5-yl)-4-(3,6-dichloro-2-fluorobenzoyl)-1H-pyrrole-2-carboxamide], the IC50 in assay [1] was determined as 5.1 µM; on ERK5 it was 0.0497 µM.
Take `COc1ccc(Cl)c(C(=O)c2c[nH]c(C(=O)Nc3cnc(CN4CCN(C)CC4)nc3)c2)c1F` [Example 245, 4-(6-Chloro-2-fluoro-3-methoxybenzoyl)-N-(2-((4-methylpiperazin-1-yl)methyl)pyrimidin-5-yl)-1H-pyrrole-2-carboxamide]: the IC50 at ERK5 turned out to be 0.013 µM; in assay [2] it was 0.461 µM.
Regarding `COc1ccc(Cl)c(C(=O)c2c[nH]c(C(=O)Nc3ccc(N4CCNCC4)nc3)c2)c1F` [Example 69, 4-(6-Chloro-2-fluoro-3-methoxybenzoyl)-N-(6-(piperazin-1-yl)pyridin-3-yl)-1H-pyrrole-2-carboxamide], the IC50 in assay [1] stood at 0.7 µM; at ERK5, 0.0157 µM.

The values above are taken from patent US10344017B2, “Pyrrolcarboxamide derivatives for the inhibition of ERK5” (CANCER RESEARCH TECHNOLOGY LIMITED, priority 2014, dated 2019).
